{
  "source": "paper PMC9078972",
  "about": "(RSC Advances, 2018)",
  "key": {"[1]": {"assay": "physchem", "conditions": "37 °C, water, thermodynamic from solid"}, "[2]": {"assay": "Cytotoxicity against VERO cells", "assay_type": "cell-based", "conditions": "African green monkey, VERO cells (kidney epithelial cells)"}, "[3]": {"assay": "in vitro", "conditions": "rat, microsomes, pH 7.5"}, "[4]": {"assay": "in vitro", "conditions": "dog; for Papp B→A / efflux ratio: MDCK-MDR1, pH 7.4; for Papp A→B: MDCK-MDR1, pH 7.4, Mean Papp A to B, A to B"}, "[5]": {"assay": "in vitro", "conditions": "human, microsomes, pH 7.5"}, "[6]": {"assay": "in vitro", "conditions": "mouse, microsomes, pH 7.5"}, "[7]": {"tested_on": "Mycobacterium tuberculosis H37Ra", "assay": "microbe, parasite or virus in culture", "assay_type": "cell-based"}, "[8]": {"conditions": "ref previous study; cited from earlier work"}, "[9]": {"target": "CYP2C19 (Homo sapiens, UniProt P33261)", "sequence (P33261 whole entry)": "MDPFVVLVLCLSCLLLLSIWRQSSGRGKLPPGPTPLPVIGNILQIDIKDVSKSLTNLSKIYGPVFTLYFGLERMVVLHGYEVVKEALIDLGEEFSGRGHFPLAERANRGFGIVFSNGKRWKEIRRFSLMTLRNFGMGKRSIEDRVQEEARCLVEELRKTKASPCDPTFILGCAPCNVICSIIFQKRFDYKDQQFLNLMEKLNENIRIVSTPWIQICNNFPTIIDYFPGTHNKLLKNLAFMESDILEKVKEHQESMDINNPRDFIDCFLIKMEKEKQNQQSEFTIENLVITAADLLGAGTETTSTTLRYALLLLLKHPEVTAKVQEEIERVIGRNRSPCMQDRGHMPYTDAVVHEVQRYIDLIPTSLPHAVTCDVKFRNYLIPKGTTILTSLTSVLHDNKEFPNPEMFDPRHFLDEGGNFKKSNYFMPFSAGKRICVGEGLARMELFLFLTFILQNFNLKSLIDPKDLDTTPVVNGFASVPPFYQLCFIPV", "assay": "biochemical", "conditions": "CYP inhibitory IC50, 2C19"}, "[10]": {"target": "CYP3A4 (Homo sapiens, UniProt P08684)", "sequence (P08684 whole entry)": "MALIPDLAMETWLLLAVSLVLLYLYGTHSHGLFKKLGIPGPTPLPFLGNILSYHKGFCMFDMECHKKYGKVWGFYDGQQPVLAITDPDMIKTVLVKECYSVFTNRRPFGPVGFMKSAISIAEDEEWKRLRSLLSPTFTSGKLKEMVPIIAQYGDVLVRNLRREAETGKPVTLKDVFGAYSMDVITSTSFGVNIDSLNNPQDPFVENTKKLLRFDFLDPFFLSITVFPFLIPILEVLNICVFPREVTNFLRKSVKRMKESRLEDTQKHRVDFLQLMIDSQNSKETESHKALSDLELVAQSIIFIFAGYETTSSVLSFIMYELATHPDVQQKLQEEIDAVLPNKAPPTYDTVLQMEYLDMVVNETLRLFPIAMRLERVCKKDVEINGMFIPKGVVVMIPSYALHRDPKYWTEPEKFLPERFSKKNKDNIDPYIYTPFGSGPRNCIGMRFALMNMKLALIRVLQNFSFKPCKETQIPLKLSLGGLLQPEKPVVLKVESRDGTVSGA", "assay": "biochemical"}, "[11]": {"assay": "Pharmacokinetic study in ICR mice", "assay_type": "in vivo", "conditions": "mouse"}},
  "data": [
    {"smiles": "C[C@H]1COC2(CCN(c3nc(=O)c4cc(C(F)(F)F)cc([N+](=O)[O-])c4s3)CC2)O1", "note": "[BTZ043]", "values": [
      {"measurement": "solubility", "setting": "[1]", "result": "< 1", "unit": "µg/mL"},
      {"measurement": "CC50", "setting": "[2]", "result": "> 10", "unit": "µM"},
      {"measurement": "half-life", "setting": "[3]", "result": 22, "unit": "min"},
      {"measurement": "Papp B→A", "setting": "[4]", "result": 7.17, "unit": "×10⁻⁶ cm/s"},
      {"measurement": "efflux ratio", "setting": "[4]", "result": 0.79},
      {"measurement": "Papp A→B", "setting": "[4]", "result": 9.02, "unit": "×10⁻⁶ cm/s"},
      {"measurement": "half-life", "setting": "[5]", "result": 46.1, "unit": "min"},
      {"measurement": "half-life", "setting": "[6]", "result": 16.7, "unit": "min"},
      {"measurement": "MIC", "setting": "[7]", "result": 0.004, "unit": "µM"},
      {"measurement": "bioavailability F", "setting": "[8]", "result": 29.5, "unit": "%"}
    ]},
    {"smiles": "O=C1CN(c2nc(=O)c3cc(C(F)(F)F)cc([N+](=O)[O-])c3s2)CCN1C1CCCC1", "note": "[Compound 1a, 2-(4-Cyclopentyl-3-oxopiperazin-1-yl)-8-nitro-6(trifluoromethyl)-4H-benzo[e]-[1,3]thiazin-4-one]", "values": [
      {"measurement": "solubility", "setting": "[1]", "result": 7.37, "unit": "µg/mL"},
      {"measurement": "CC50", "setting": "[2]", "result": "> 10", "unit": "µM"},
      {"measurement": "IC50", "setting": "[9]", "result": 8.6, "unit": "µM"},
      {"measurement": "half-life", "setting": "[3]", "result": 15.6, "unit": "min"},
      {"measurement": "Papp B→A", "setting": "[4]", "result": 7.23, "unit": "×10⁻⁶ cm/s"},
      {"measurement": "efflux ratio", "setting": "[4]", "result": 0.68},
      {"measurement": "Papp A→B", "setting": "[4]", "result": 10.6, "unit": "×10⁻⁶ cm/s"},
      {"measurement": "half-life", "setting": "[5]", "result": 72, "unit": "min"},
      {"measurement": "half-life", "setting": "[6]", "result": 9.4, "unit": "min"},
      {"measurement": "IC50", "setting": "[10]", "result": 5.33, "unit": "µM"},
      {"measurement": "MIC", "setting": "[7]", "result": 0.013, "unit": "µM"}
    ]},
    {"smiles": "Cc1ccc(OC2CCN(c3nc(=O)c4cc(C(F)(F)F)cc([N+](=O)[O-])c4s3)CC2)c(F)c1", "note": "[Compound 3i, 2-(4-(2-Fluoro-4-methylphenoxy)piperidin-1-yl)-8-nitro-6-(tri-fluoromethyl)-4H-benzo[e][1,3]thiazin-4-one]", "values": [
      {"measurement": "solubility", "setting": "[1]", "result": 1, "unit": "µg/mL"},
      {"measurement": "CC50", "setting": "[2]", "result": "> 10", "unit": "µM"},
      {"measurement": "MIC", "setting": "[7]", "result": 0.016, "unit": "µM"}
    ]},
    {"smiles": "Cc1ccnc(OC2CCN(c3nc(=O)c4cc(C(F)(F)F)cc([N+](=O)[O-])c4s3)CC2)n1", "note": "[Compound 3m, 2-(4-((4-Methylpyrimidin-2-yl)oxy)piperidin-1-yl)-8-nitro-6-(trifluoromethyl)-4H-benzo[e][1,3]thiazin-4-one]", "values": [
      {"measurement": "solubility", "setting": "[1]", "result": 2.39, "unit": "µg/mL"},
      {"measurement": "CC50", "setting": "[2]", "result": "> 10", "unit": "µM"},
      {"measurement": "MIC", "setting": "[7]", "result": 0.031, "unit": "µM"}
    ]},
    {"smiles": "O=c1nc(N2CCN(CC3CCCCC3)CC2)sc2c([N+](=O)[O-])cc(C(F)(F)F)cc12", "note": "[PBTZ169]", "values": [
      {"measurement": "Cmax", "setting": "[11]; lung, iv, 10 mg/kg", "result": 4210, "unit": "ng/mL"},
      {"measurement": "MRT inf", "setting": "[11]; lung, iv, 10 mg/kg", "result": 270, "unit": "min"},
      {"measurement": "Tmax", "setting": "[11]; lung, iv, 10 mg/kg", "result": 4.8, "unit": "min"},
      {"measurement": "half-life", "setting": "[11]; lung, iv, 10 mg/kg", "result": 190, "unit": "min"},
      {"measurement": "AUC(0-inf)", "setting": "[11]; lung, po, 100 mg/kg", "result": 7840, "unit": "ng·h/mL"},
      {"measurement": "Cmax", "setting": "[11]; lung, po, 100 mg/kg", "result": 811, "unit": "ng/mL"},
      {"measurement": "MRT inf", "setting": "[11]; lung, po, 100 mg/kg", "result": 390, "unit": "min"},
      {"measurement": "Tmax", "setting": "[11]; lung, po, 100 mg/kg", "result": 30, "unit": "min"},
      {"measurement": "half-life", "setting": "[11]; lung, po, 100 mg/kg", "result": 254, "unit": "min"},
      {"measurement": "AUC(0-inf)", "setting": "[11]; plasma, iv, 10 mg/kg", "result": 9070, "unit": "ng·h/mL"},
      {"measurement": "MRT inf", "setting": "[11]; plasma, iv, 10 mg/kg", "result": 63, "unit": "min"},
      {"measurement": "Tmax", "setting": "[11]; plasma, iv, 10 mg/kg", "result": 4.8, "unit": "min"},
      {"measurement": "Vd", "setting": "[11]; plasma, iv, 10 mg/kg", "result": 1.15, "unit": "L/kg"},
      {"measurement": "clearance", "setting": "[11]; plasma, iv, 10 mg/kg", "result": 18.3, "unit": "mL/min/kg"},
      {"measurement": "half-life", "setting": "[11]; plasma, iv, 10 mg/kg", "result": 160, "unit": "min"},
      {"measurement": "Cmax", "setting": "[11]; plasma, po, 100 mg/kg", "result": 3000, "unit": "ng/mL"},
      {"measurement": "MRT inf", "setting": "[11]; plasma, po, 100 mg/kg", "result": 222, "unit": "min"},
      {"measurement": "Tmax", "setting": "[11]; plasma, po, 100 mg/kg", "result": 120, "unit": "min"},
      {"measurement": "bioavailability", "setting": "[11]; plasma, po, 100 mg/kg", "result": 20.8, "unit": "%"},
      {"measurement": "half-life", "setting": "[11]; plasma, po, 100 mg/kg", "result": 125, "unit": "min"},
      {"measurement": "half-life", "setting": "[3]", "result": 14.7, "unit": "min"},
      {"measurement": "Papp B→A", "setting": "[4]", "result": 0.74, "unit": "×10⁻⁶ cm/s"},
      {"measurement": "Papp A→B", "setting": "[4]", "result": 0.74, "unit": "×10⁻⁶ cm/s"},
      {"measurement": "half-life", "setting": "[5]", "result": 11.1, "unit": "min"},
      {"measurement": "half-life", "setting": "[6]", "result": 14.4, "unit": "min"}
    ]}
  ]
}
